Assay results as given in ChEMBL document CHEMBL5241112, “Insights into the recent progress in the medicinal chemistry of pyranopyrimidine analogs” (RSC Med Chem, 2022).
pIC50: −log10 of the molar value. Converted amounts (≈) assume the structure as drawn.

Assays:
Staphylococcus aureus [1] = experiment: Antimicrobial activity against Staphylococcus aureus assessed as diameter of inhibition zone at 1 mg/ml incubated for 48 hrs by agar disk diffusion method; format: functional; conditions: read-out: DIZ
Pseudomonas aeruginosa [2] = experiment: Antimicrobial activity against Pseudomonas aeruginosa assessed as diameter of inhibition zone at 1 mg/ml incubated for 48 hrs by agar disk diffusion method; format: functional; conditions: read-out: DIZ
Bacillus cereus = experiment: Antimicrobial activity against Bacillus cereus assessed as diameter of inhibition zone at 1 mg/ml incubated for 48 hrs by agar disk diffusion method; format: functional; conditions: read-out: DIZ
Penicillium chrysogenum = experiment: Antifungal activity against Penicillium chrysogenum assessed as diameter of inhibition zone at 1 mg/ml incubated for 72 to 91 hrs by agar disk diffusion method; format: functional; conditions: time 72-91 hrs, read-out: DIZ
Klebsiella pneumoniae [3] = experiment: Antimicrobial activity against Klebsiella pneumoniae assessed as diameter of inhibition zone at 1 mg/ml incubated for 48 hrs by agar disk diffusion method; format: functional; conditions: read-out: DIZ
Escherichia coli [4] = experiment: Antimicrobial activity against Escherichia coli assessed as diameter of inhibition zone at 1 mg/ml incubated for 48 hrs by agar disk diffusion method; format: functional; conditions: read-out: DIZ
Aspergillus niger [5] = experiment: Antifungal activity against Aspergillus niger assessed as diameter of inhibition zone at 1 mg/ml incubated for 72 to 91 hrs by agar disk diffusion method; format: functional; conditions: time 72-91 hrs, read-out: DIZ
Capra hircus = organism: Capra hircus; experiment: Inhibition of goat lens AR at 100 uM incubated for 10 mins in presence of NADPH by spectroscopic analysis
[6] = Antioxidant activity assessed as DPPH radical scavenging activity incubated for 20 mins by spectrophotometric analysis; format: functional; design: concentration or dose not given beside the values
[7] = Antioxidant activity assessed as hydroxyl radical scavenging activity incubated for 5 mins by spectrophotometric analysis; format: functional; design: concentration or dose not given beside the values
Pseudomonas aeruginosa [8] = experiment: Antibacterial activity against Pseudomonas aeruginosa assessed as bacterial growth inhibition by broth microdilution method; format: functional
Staphylococcus aureus [9] = experiment: Antibacterial activity against Staphylococcus aureus assessed as bacterial growth inhibition by broth microdilution method; format: functional
Candida albicans [10] = experiment: Antifungal activity against Candida albicans assessed as fungal growth inhibition by broth microdilution method; format: functional
Klebsiella pneumoniae [11] = experiment: Antibacterial activity against Klebsiella pneumoniae assessed as bacterial growth inhibition by broth microdilution method; format: functional
Escherichia coli [12] = experiment: Antibacterial activity against Escherichia coli assessed as bacterial growth inhibition by broth microdilution method; format: functional
Aspergillus flavus [13] = experiment: Antifungal activity against Aspergillus flavus assessed as fungal growth inhibition by broth microdilution method; format: functional
HeLa = experiment: Anticancer activity against human HeLa cells assessed as reduction in cell viability incubated for 48 hrs by MTT assay; format: functional, cell-based
MCF7 = experiment: cells; conditions: Homo sapiens, MCF7, 48 h
Urease = Urease (Canavalia ensiformis, UniProt P07374); experiment: Inhibition of jack bean urease by phenol red method
Escherichia coli [14] = experiment: Antibacterial activity against Escherichia coli assessed as diameter of inhibition zone; format: functional
Bacillus subtilis = experiment: Antibacterial activity against Bacillus subtilis assessed as diameter of inhibition zone; format: functional
Staphylococcus aureus [15] = experiment: Antibacterial activity against Staphylococcus aureus assessed as diameter of inhibition zone; format: functional
Candida albicans [16] = experiment: Antifungal activity against Candida albicans assessed as inhibition of fungal growth; format: functional
Aspergillus niger [17] = experiment: Antifungal activity against Aspergillus niger assessed as inhibition of fungal growth; format: functional
Aspergillus flavus [18] = experiment: Antifungal activity against Aspergillus flavus assessed as inhibition of fungal growth; format: functional
Salmonella typhimurium = experiment: Antibacterial activity against Salmonella typhimurium assessed as diameter of inhibition zone; format: functional, Salmonella enterica subsp. enterica serovar Typhimurium
[19] = Antioxidant activity assessed as H2O2 radical scavenging activity; format: functional
[20] = Antioxidant activity assessed as NO radical scavenging activity; format: functional

Sequence of Urease (P07374 whole entry): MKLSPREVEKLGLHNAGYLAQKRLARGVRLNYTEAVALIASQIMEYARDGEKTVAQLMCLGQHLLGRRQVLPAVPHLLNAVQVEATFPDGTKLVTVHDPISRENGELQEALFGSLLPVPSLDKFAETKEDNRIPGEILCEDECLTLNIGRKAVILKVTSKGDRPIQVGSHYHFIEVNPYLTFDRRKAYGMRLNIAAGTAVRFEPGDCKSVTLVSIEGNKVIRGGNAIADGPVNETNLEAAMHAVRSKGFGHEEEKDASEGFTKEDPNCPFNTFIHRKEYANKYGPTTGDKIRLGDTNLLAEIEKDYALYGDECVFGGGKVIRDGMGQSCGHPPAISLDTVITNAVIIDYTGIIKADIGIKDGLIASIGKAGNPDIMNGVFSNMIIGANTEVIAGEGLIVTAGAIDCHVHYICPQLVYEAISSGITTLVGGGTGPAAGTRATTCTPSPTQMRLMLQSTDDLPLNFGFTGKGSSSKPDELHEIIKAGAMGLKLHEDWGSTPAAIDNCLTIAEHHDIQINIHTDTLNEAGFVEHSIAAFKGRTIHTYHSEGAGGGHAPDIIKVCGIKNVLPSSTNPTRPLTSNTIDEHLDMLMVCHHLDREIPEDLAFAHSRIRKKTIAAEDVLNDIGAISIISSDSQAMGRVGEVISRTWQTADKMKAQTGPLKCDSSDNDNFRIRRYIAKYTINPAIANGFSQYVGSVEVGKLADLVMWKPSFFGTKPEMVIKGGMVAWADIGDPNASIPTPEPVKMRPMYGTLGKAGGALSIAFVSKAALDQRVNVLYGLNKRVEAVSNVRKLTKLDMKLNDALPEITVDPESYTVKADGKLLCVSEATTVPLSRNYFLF

SMILES: COC(=O)C1=C(N)Oc2[nH]c(=S)[nH]c(=O)c2C1c1ccc(OC)c(OC)c1 (stereo unspecified)
- zone of inhibition at 1000 µg/mL (Staphylococcus aureus [1]): 13 mm
- zone of inhibition at 1000 µg/mL (Pseudomonas aeruginosa [2]): 12 mm
- zone of inhibition at 1000 µg/mL (Bacillus cereus): 15 mm
- zone of inhibition at 1000 µg/mL (Penicillium chrysogenum): 12 mm
- zone of inhibition at 1000 µg/mL (Klebsiella pneumoniae [3]): 14 mm
- zone of inhibition at 1000 µg/mL (Escherichia coli [4]): 16 mm
- zone of inhibition at 1000 µg/mL (Aspergillus niger [5]): 0 mm

SMILES: O=c1[nH]c2c(c(=O)[nH]1)Oc1c(c(=O)oc3ccccc13)C2c1ccc(Cl)cc1 (stereo unspecified)
- inhibition (Capra hircus): 47%
- Activity [6]: 71.5%
- Activity [7]: 68.3%

SMILES: CCO/C=N/C1=C(C#N)C(c2ccc(F)cc2)c2c(n(C)c(=O)n(C)c2=O)O1 (stereo unspecified)
- MIC (Pseudomonas aeruginosa [8]): 6.25 µg/mL (≈ 16.3 µM)
- MIC (Staphylococcus aureus [9]): 6.25 µg/mL (≈ 16.3 µM)
- MIC (Candida albicans [10]): 3.12 µg/mL (≈ 8.12 µM)
- MIC (Klebsiella pneumoniae [11]): 6.25 µg/mL (≈ 16.3 µM)
- MIC (Escherichia coli [12]): 6.25 µg/mL (≈ 16.3 µM)
- MIC (Aspergillus flavus [13]): 3.12 µg/mL (≈ 8.12 µM)

SMILES: COc1ccc(C2NC(=O)Nc3c2c(=O)oc2ccccc32)cc1OC (stereo unspecified)
- pIC50 (HeLa): 4.42
- pIC50 (MCF7): 4.42

SMILES: N#CC1=C(N)Oc2[nH]c(=O)[nH]c(=O)c2C1c1ccc(Cl)cc1 (stereo unspecified)
- pIC50 (Urease): 4.30
- diameter of the inhibition zone (DIZ) (Escherichia coli [14]): 16 mm
- diameter of the inhibition zone (DIZ) (Bacillus subtilis): 16 mm
- diameter of the inhibition zone (DIZ) (Staphylococcus aureus [15]): 18 mm
- MIC (Candida albicans [16]): 125 µg/mL (≈ 395 µM)
- MIC (Aspergillus niger [17]): 162 µg/mL (≈ 513 µM)
- MIC (Aspergillus flavus [18]): 150 µg/mL (≈ 474 µM)
- diameter of the inhibition zone (DIZ) (Salmonella typhimurium): 20 mm

SMILES: COc1cc(C2C(C#N)=C(N)Oc3cc(O)ccc32)ccc1O (stereo unspecified)
- IC50 [19]: 53.54 µg/mL (≈ 173 µM)
- IC50 [20]: 50.32 µg/mL (≈ 162 µM)

SMILES: CCO/C=N/C1=C(C#N)C(c2ccccc2F)c2c(n(C)c(=O)n(C)c2=O)O1 (stereo unspecified)
- MIC (Pseudomonas aeruginosa [8]): 6.25 µg/mL (≈ 16.3 µM)
- MIC (Staphylococcus aureus [9]): 6.25 µg/mL (≈ 16.3 µM)
- MIC (Candida albicans [10]): 6.25 µg/mL (≈ 16.3 µM)
- MIC (Klebsiella pneumoniae [11]): 6.25 µg/mL (≈ 16.3 µM)
- MIC (Escherichia coli [12]): 6.25 µg/mL (≈ 16.3 µM)
- MIC (Aspergillus flavus [13]): 6.25 µg/mL (≈ 16.3 µM)

SMILES: Nc1ncnc2c1C(c1ccc(Br)cc1)c1ccc(O)cc1O2 (stereo unspecified)
- IC50 [20]: 50.32 µg/mL (≈ 136 µM)

SMILES: COC(=O)C1=C(N)Oc2[nH]c(=S)[nH]c(=O)c2C1c1ccc(Cl)cc1 (stereo unspecified)
- zone of inhibition at 1000 µg/mL (Pseudomonas aeruginosa [2]): 13 mm
- zone of inhibition at 1000 µg/mL (Bacillus cereus): 10 mm
- zone of inhibition at 1000 µg/mL (Penicillium chrysogenum): 0 mm
- zone of inhibition at 1000 µg/mL (Klebsiella pneumoniae [3]): 3 mm
- zone of inhibition at 1000 µg/mL (Escherichia coli [4]): 7 mm

SMILES: Cn1c2c(c(=O)n(C)c1=O)C(c1ccc(O)cc1)C(C#N)=C(N)O2 (stereo unspecified)
- pIC50 (Urease): 3.97
